Columns and labels:
Pythium ultimum [1] = test: Limit concentration of soil-fungicidal effectiveness, Pythium ultimum infested soil, peas (Example 1); format: in vivo; conditions: Globisporangium ultimum, 20 to 23 days, 22°-25° C., germination at least 90% vs steamed soil
Experimental: (§1) Limit concentrations of the soil-fungicidal effectiveness at homogeneous mixture of the products with the infested soil. Basic condition in the evaluation are a sound root formation without fungus necroses and germination of the seed of at least 90% compared with the result obtained in steamed soil. Per concentration there were seeded 25 grains of peas of the variety "Miracle of Kelvedon" (marrow pea) without a waiting period. the cultivation time in the tests was 20 to 23 days at a temperature of 22°-25° C. Four commercial products were included in the test series.
Pythium ultimum: Steamed compost soil was inoculated with mycelium of Pythium ultimum

Rhizoctonia solani [2] = test: Pea test in soil inoculated with Rhizoctonia solani (Example 3); format: in vivo; conditions: for Root evaluation (1-4): 3 weeks; for Number of sound peas after 3 wks.: 25 grains seeded
Source text: Steamed compost soil was inoculated with mycelium of Rhizoctonia solani. After homogeneous mixture of the products with the infested soil, the products were present in the form of 20% powder preparations, the seeding of 25 grains of marrow peas of the variety Miracle of Kelvedon per concentration was effected without waiting period in clay dishes holding 1 liter of soil. The table lists the number of germinated sound peas, the weight of the fresh plant, and a root evaluation after a cultivation period of 3 weeks at 22°-25° C.

Damping-off Fungi = test: Cotton seed disinfection in normal compost soil (Example 6); format: in vivo; conditions: 100 mg active ingr. per kg of seed, 15 days, 22°-25° C.
Experimental: Cotton seeds disinfected with 10% formulations were seeded in normal compost soil (Damping-off Fungi), 25 grains per concentration. After a cultivation time of 15 days at 22°-25° C., the number of germinated sound cotton seedlings and their weight as fresh plants were determined.

Aspergillus niger = test: Agar test, Aspergillus niger (Example 7); format: cell-based; conditions: 10 ppm in malt extract agar, 5 days at 22° C.; control 100
Experimental: (§2) The fungicidal action of the agents according to the invention was tested in artificial nutrient media against plant-pathogenic fungi in Petri dishes (agar test). The procedure was to sterilize the medium consisting of 2% malt extract and 1.5% agar-agar powder. Before the solidification of the medium, the active substances were added to it, mixing thoroughly, so that the medium received 10 parts of active substance per million (ppm). After the solidification of the medium, the latter was inoculated with a platinum dropper which contained 100 spores each of the fungi to be tested, and after 5 days at 22° C., an evaluation was made by measuring the diameter of the colonies in mm.

Stemphylium ilicis = test: Agar test, Stemphylium ilicis (Example 7); format: cell-based; conditions: 10 ppm in malt extract agar, 5 days at 22° C.; control 100
Experimental: as §2

[3] = acute oral toxicity in rats; conditions: rat, in vivo
Pythium ultimum [4] = test: Fungicidal effect in the vapor phase, Pythium ultimum (Example 11); format: cell-based; conditions: even at 1 mg active ingredient per liter; 3 days, 22° C.; 10% powder
Experimental: (§3) Nutrient medium inoculated with nycelium of Pythium ultimum or Rhizoctonia solani in open Petri dishes was placed in glass vessels 12 cm tall. First the quantity of product as a 10% powder preparation had been placed on the bottom of the glasses. After a reaction time of 3 days (Pythium) and 5 days (Rhizoctonia) at a temperature of 22° C. in the covered glass vessel, the mycelium growth was evaluated.

Rhizoctonia solani [5] = test: Fungicidal effect in the vapor phase, Rhizoctonia solani (Example 11); format: cell-based; conditions: even at 1 mg active ingredient per liter; 5 days, 22° C.; 10% powder
Experimental: as §3

Pythium ultimum [6] = test: Pea test in soil inoculated with Pythium ultimum (Example 2); format: in vivo; design: key to Root evaluation (1-4): 4 = white roots, no necroses … 1 = severe necroses, roots rotted; conditions: for Number of sound peas after 3 wks.: 25 grains seeded; for Root evaluation (1-4): 3 weeks
Experimental: Steamed compost soil was inoculated with mycelium of Pythium ultimum. […] The following table lists the number of germinated sound peas, the weight of the fresh plant, and a root evaluation after a cultivation period of 3 weeks at 22°-25° C.
4 = white roots, without fungus necroses
3 = white roots, slight fungus necroses
2 = brown roots, more intense fungus necroses
1 = severe fungus necroses, roots rotted

[7] = test system: Fusarium oxysporum f. callistephi; test: Soil inoculated with Fusarium oxysporum f. callistephi, Callistephus chinensis host plants (Example 5); format: in vivo; conditions: four seedlings per concentration
Source text: Steamed compost soil was inoculated with a spore suspension of Fusarium oxysporum f. callistephi. After homogeneous mixture of the products with the infested soil, the products were present as 20% powder preparations, and after a waiting period of 8 days, there were set out per concentration four seedlings of Callistephus chinensis, master aster "Sun Ray" as host plants.

Pythium ultimum [8] = test: Fungistatic and fungicidal action on Pythium ultimum of preparations with varying active ingredient percentages (Example 4); format: in vivo; conditions: for Number of sound peas after 3 wks.: 25 grains seeded
Source text: Comparison of the fungistatic and fungicidal action on Pythium ultimum when using preparations with varying active ingredient percentages on siliceous clay. Steamed compost soil was inoculated with mycelium of Pythium ultimum. After forming a homogeneous mixture of the products with the infested soil, […], the seeding of 25 grains of marrow peas of the variety Miracle of Kelvedon per concentration in clay dishes holding 1 liter of soil followed without a waiting period. In the table is stated the number of germinated sound peas, the weight of the fresh plant, and a root evaluation after a cultivation period of 3 weeks at 22°-25° C.

Meloidogyne incognita = test: Nematocidal action against root gall nematodes, cucumber (Example 8); format: in vivo; conditions: reduction of attack, 30 days
Experimental: The products as 20% powder preparations were homogeneously admixed with a compost soil heavily infested by root gall nematodes. Without a waiting period, 20 cucumber seeds per concentration were seeded. After a cultivation time of 30 days at a temperature of 23°-25° C., the nematocidal action was evaluated by counting the root galls formed in the waterbath. The following table states the reduction of attack in percent. In the control, an average of 90 root galls per seedling had formed.

Pyrenochaeta lycopersici = test: Control of Pyrenochaeta lycopersici, corky root disease of the tomato, open field (Example 9); format: in vivo; conditions: for Weight of single tomato (% of untreated): 0 g = 100%; for Tomatoes per plant / Weight of single tomato / Yield per plant: 10% granulate
Source text: Control of Pyrenochaeta lycopersici, corky root disease of the tomato.
On a naturally infested open field area, 2-dichloromethyl-5-methylsulfonyl-1,3,4-thiadiazole was scattered as a 10% granulate formulation and hoed in 20 cm deep. […] After a reaction period of 3 weeks, tomato plants of the variety "Ronald-M" which were 8 weeks old were set out at a distance from each other of 50 × 70 cm. The harvest results indicated in the table are average values of 40 plants per lot and refer to harvested ripe tomatoes.

Rhizoctonia solani [9] = test: Limit concentration of soil-fungicidal effectiveness, Rhizoctonia solani infested soil, peas (Example 1); format: in vivo; conditions: 20 to 23 days, 22°-25° C., germination at least 90% vs steamed soil
Experimental: as §1
Rhizoctonia solani: Steamed compost soil was inoculated with mycelium of Rhizoctoniz solani.

[10] = 10 mg active ingr. per liter of soil
[11] = 20 mg active ingr. per liter of soil
[12] = 30 mg active ingr. per liter of soil
[13] = 200 mg active ingr. per liter of soil
[14] = 5% formulation, 6 mg active ingr. per liter of soil
[15] = 5% formulation, 10 mg active ingr. per liter of soil
[16] = 10% formulation, 10 mg active ingr. per liter of soil
[17] = 20% formulation, 6 mg active ingr. per liter of soil
[18] = 10 g active ingr. per square meter
[19] = 20 g active ingr. per square meter

Q: Which results are given for `CS(=O)(=O)c1nnc(C(Cl)(Cl)Cl)s1` [Compound 21, 2-trichloromethyl-5-methylsulfonyl-1,3,4-thiadiazole]?
A: minimal effective concentration (Pythium ultimum [1]): 40 µg/mL; Root evaluation (1-4) (Rhizoctonia solani [2]; [10]): 4; Root evaluation (1-4) (Rhizoctonia solani [2]; [11]): 4; Root evaluation (1-4) (Rhizoctonia solani [2]; [12]): 4; Sound plants in % (Damping-off Fungi): 100%; diameter of the colonies, Aspergillus niger (Aspergillus niger): 0 mm; diameter of the colonies, Stemphylium ilicis (Stemphylium ilicis): 0 mm; LD50 [3]: 717 mg/kg

Q: Which minimal effective concentration (Pythium ultimum [1]) does the source give for `CC[S+]([O-])c1nnc(C(F)(F)F)s1` (stereo not shown) [Compound 36, 2-trifluoromethyl-5-ethylsulfinyl-1,3,4-thiadiazole] here?
A: The minimal effective concentration was 10 µg/mL.

Q: What about the “mycelium growth, Pythium ultimum, vapor phase” value (Pythium ultimum [4]) of the same compound?
A: The value was “no mycelium growth”.

Q: And the “mycelium growth, Rhizoctonia solani, vapor phase” value (Rhizoctonia solani [5])?
A: The value was “no mycelium growth”.

Q: What does the source list for `COc1cc(Cl)c(OC)cc1Cl` [1,4-dichloro-2,5-dimethoxybenzene, reference compound]?
A: Number of sound peas after 3 wks. (Pythium ultimum [6]; [13]): 2; Number of sound peas after 3 wks. (Rhizoctonia solani [2]; [10]): 0; Number of sound peas after 3 wks. (Rhizoctonia solani [2]; [11]): 0; Number of sound peas after 3 wks. (Rhizoctonia solani [2]; [12]): 21; Number of sound peas after 3 wks. (Rhizoctonia solani [2]; 40 mg active ingr. per liter of soil): 22; No. of attacked plants after 3 weeks ([7]; 50 mg active ingr. per liter of soil): 4; No. of attacked plants after 3 weeks ([7]; 100 mg active ingr. per liter of soil): 4; No. of attacked plants after 3 weeks [7, 13]: 4

Q: Which results are given for `CS(=O)(=O)c1nnc(C(Cl)Cl)s1` [Compound 17, 2-dichloromethyl-5-methylsulfonyl-1,3,4-thiadiazole]?
A: minimal effective concentration (Pythium ultimum [1]): 10 µg/mL; Root evaluation (1-4) (Pythium ultimum [6]; [10]): 4; Root evaluation (1-4) (Pythium ultimum [6]; [11]): 4; Number of sound peas after 3 wks. (Pythium ultimum [6]; [11]): 24; Root evaluation (1-4) (Pythium ultimum [6]; [12]): 4; Number of sound peas after 3 wks. (Pythium ultimum [6]; [12]): 24; Root evaluation (1-4) (Rhizoctonia solani [2]; [11]): 4; Root evaluation (1-4) (Rhizoctonia solani [2]; [12]): 4; Weight of fresh plant (Pythium ultimum [8]; [14]): 9 g; Number of sound peas after 3 wks. (Pythium ultimum [8]; [14]): 12; Weight of fresh plant (Pythium ultimum [8]; [15]): 20 g; Number of sound peas after 3 wks. (Pythium ultimum [8]; [15]): 24; Weight of fresh plant (Pythium ultimum [8]; 10% formulation, 6 mg active ingr. per liter of soil): 15 g; Weight of fresh plant (Pythium ultimum [8]; [16]): 24 g; Number of sound peas after 3 wks. (Pythium ultimum [8]; [16]): 22; Weight of fresh plant (Pythium ultimum [8]; [17]): 17 g; Number of sound peas after 3 wks. (Pythium ultimum [8]; [17]): 22; Weight of fresh plant (Pythium ultimum [8]; 20% formulation, 10 mg active ingr. per liter of soil): 16 g; Sound plants in % (Damping-off Fungi): 100%; diameter of the colonies, Aspergillus niger (Aspergillus niger): 0 mm; diameter of the colonies, Stemphylium ilicis (Stemphylium ilicis): 0 mm; Nematocidal action in % (Meloidogyne incognita) (Meloidogyne incognita; 40 mg active substance per liter of soil): 90%; Nematocidal action in % (Meloidogyne incognita) (Meloidogyne incognita; 60 mg active substance per liter of soil): 94%; Weight of single tomato (% of untreated) (Pyrenochaeta lycopersici; [18]): 110%; Tomatoes per plant (Pyrenochaeta lycopersici; [18]): 27; Weight of single tomato (Pyrenochaeta lycopersici; [18]): 66 g; Yield per plant (Pyrenochaeta lycopersici; [18]): 1774 g; Weight of single tomato (% of untreated) (Pyrenochaeta lycopersici; [19]): 130%; Tomatoes per plant (Pyrenochaeta lycopersici; [19]): 28; Weight of single tomato (Pyrenochaeta lycopersici; [19]): 78 g; Yield per plant (Pyrenochaeta lycopersici; [19]): 2209 g

Q: With `CS(=O)(=O)c1nnc(C(F)(F)Cl)s1` [Compound 54, 2-chlorodifluoromethyl-5-methylsulfonyl-1,3,4-thiadiazole] as the compound, how does the minimal effective concentration (Pythium ultimum [1]) read?
A: Its minimal effective concentration is 10 µg/mL.

Q: What about the minimal effective concentration (Rhizoctonia solani [9]) of the same compound?
A: Its minimal effective concentration is 20 µg/mL.

Source: US4005213A, “2,5-Substituted-1,3,4-thiadiazoles as fungicides” (Schering Aktiengesellschaft, priority 1968, dated 1977)
